From patent US7378387B2, “Method of suppressing immune response by reducing intracellular content of glutathione in macrophages and monocytes” (Ajinomoto Co., Inc., priority 1997, dated 2008)

Legend:
[1] = test system: spontaneous onset of insulin-dependent diabetes mellitus; experiment: Onset of diabetes mellitus in NOD mice dosed at age 3 to 6 weeks (Example 23); assay type: in vivo; settings: three times per week, nine times; for Frequency (%) of onset of diabetes mellitus, on age 18 weeks: saline 50; for Frequency (%) of onset of diabetes mellitus, on age 22 weeks: saline 80
Method: NOD mice purchased from Nippon Clair, Co. were naturally mated together. Among the off spring mice, a colony of NOD mice with a high frequency of the spontaneous onset of insulin-dependent diabetes mellitus was established. Female NOD mice from the colony were used for the present experiment. […] Urine glucose was detected, using Uropaper (BM Test Glucose 5000, manufactured by Yamanouchi Pharmaceuticals, Co. Ltd.). Chemical agents were administered intraperitoneally, unless otherwise stated. […] (NAC)2 and (NAC-OMe)2 were at a single dose of 20 μg/animal; and NAC and GSHOEt were at a single dose of 2 μg/animal; and a single dose of lentinan was 0.1 mg/kg.

[2] = test system: spontaneous onset of insulin-dependent diabetes mellitus; experiment: Onset of diabetes mellitus in NOD mice dosed at age 3 to 6 and 9 to 11 weeks (Example 24); assay type: in vivo; settings: doses as in the table line, 15 times in total, judged on week 22, saline 60
Description: NOD mice purchased from Nippon Clair, Co. were naturally mated together. Among the off spring mice, a colony of NOD mice with a high frequency of the spontaneous onset of insulin-dependent diabetes mellitus was established. Female NOD mice from the colony were used for the present experiment. […] Urine glucose was detected, using Uropaper (BM Test Glucose 5000, manufactured by Yamanouchi Pharmaceuticals, Co. Ltd.). The onset was judged on week 22.

NO = NO production from macrophages induced through administration (Example 9, Table 1); assay type: in vivo, DBA/2 mice; settings: LPS 100 ng/ml, IFNγ 100 units/ml
Method: A stimulator was added to 1×10^5 MΦ, and the incubation was conducted at 37° C. for 2 days in a CO2 incubator. After the completion of the centrifugation, the culture supernatant was collected.
One hundred microliters of a Griess-Romijn reagent (supplied by Waco Pure Chemical Industries, Ltd.) adjusted to a concentration of 50 mg/ml in distilled water were added to 100 μl of the culture supernatant, and the reaction was conducted at room temperature for 15 minutes. After the completion of reaction, an absorbance of 540 nm was measured. NaNO2 was used as a standard.
(§1) This was clarified by harvesting peritoneal exudate cells 20 hours after the completion of the administration, adhering the cells to the plastic surface, then reacting the cells with 10 μM of monochlorobimane at 37° C. for 30 minutes, and analyzing the reaction product with ACAS. The increase in the amounts of oxidative macrophages can easily be determined visually from the fact that almost no reaction product with monochlorobimane is observed, namely, a gray or blue image is provided, and the increase in the amounts of reductive macrophages from the fact that a red or yellow image is provided respectively. […] Meanwhile, the same examination was conducted by harvesting peritoneal exudate cells after 20 hours of the administration of 2 mg of N-acetylcystine (NAC).
(§2) Thus, the peritoneal exudate adherent cells were incubated in the following manner, and the amounts of NO and IL-12 produced in the culture supernatant were measured. With respect to the amount of IL-6, the amount of IL-6 produced spontaneously in the absence of a stimulator was measured.
(§3) Cells: The peritoneal exudate adherent cells obtained by the stimulation, namely, the macrophages were added to a 96-well microplate in an amount of 1×10^5 cells/200 μl each.
(§4) Medium: Phenol red-free RPMI 1640: 200 μl/well
LPS: Lipopolysaccharide (made by Sigma Co.) (origin: E. coli) 100 ng/ml

[3] = test system: adjuvant-induced arthritis; experiment: Adjuvant-induced arthritis (AA) in rats, joint swelling (Examples 18 and 19); assay type: in vivo, Lewis rats
Method: Adjuvant-induced arthritis was triggered in Lewis rats in a conventional manner; and the effects of chemical agents were examined in the animals. Adjuvant-induced arthritis is well known as an experimental arthritis inducible in rats [Taurog et al., Meth. Enzymol. 162, 339-355 (1988)]. […] An adjuvant is administered at 1 mg/0.1 ml per rate at a site of caudal root. The edema reaches its peak about 2 to 3 weeks after the administration of the adjuvant. The edema is triggered by inflammatory infiltration of monocytes. Swollen joints are measured with a micrometer every day; comparing the diameters of the joints prior to and after adjuvant administration and after initiation of the treatment with chemical agents with the diameters of the joints in the control group, the effects of the chemical agents were expressed as the ratio in % of joint swelling in the experimental groups to joint swelling in the control group. The effects were determined on day 15 after adjuvant administration. The chemical agents were given, starting the day next to the day of adjuvant administration, and every 3 days thereafter.
A single dose is 1 mg/kg for (NAC)2 and (NAC-OMe)2; 100 mg/kg for NAC; and 0.1 mg/kg for lentinan.
Adjuvant-induced arthritis was induced in Lewis rats in a conventional manner. In the same manner as in Example 11, the effects of chemical agents were examined in these rats. The conditions were the same as described above.

IL-6 = IL-6 production from macrophages induced through administration (Example 9, Table 1); assay type: in vivo, DBA/2 mice; design: concentration or dose not given beside the values; settings: produced spontaneously in the absence of a stimulator
Method: A stimulator was added to 1×10^6 MΦ, and the incubation was conducted at 37° C. for 2 days in a CO2 incubator. After centrifugation, the culture supernatant was collected.
The amount of IL-6 was determined using IL-6 dependent mouse hybridoma MH60 cells (J. Eur. Immunol., vol. 18, p. 951, 1988). One hundred microliters of the culture supernatant were added to 100 μl of the MH60 cell suspension adjusted to 1×10^5 cells/ml in a 10% FCS-containing RPMI medium, and the mixed solution was incubated at 37° C. for 2 days in a CO2 incubator. Subsequently, 10 μl of MTT (supplied by Sigma Co.) solution adjusted to a concentration of 5 mg/ml in the same medium were added thereto, and the reaction was conducted at 37° C. for 5 hours. After the completion of the reaction, the centrifugation was conducted. The supernatant (160 μl) was removed, and 100 μl of a mixture of hydrochloric acid and propanol were added to the residue. The suspension was conducted using a pipetman to dissolve the cells. Immediately after the dissolution, an absorbance of 570 nm was measured with an immunometer (supplied by Bio-Rad).
as §1, §2, §3, §4

[4] = test system: spontaneous onset of insulin-dependent diabetes mellitus; experiment: Onset of diabetes mellitus in NOD mice dosed at age 9 to 11 weeks (Example 25); assay type: in vivo; settings: nine times
Description: NOD mice purchased from Nippon Clair, Co. were naturally mated together. Among the off spring mice, a colony of NOD mice with a high frequency of the spontaneous onset of insulin-dependent diabetes mellitus was established. Female NOD mice from the colony were used for the present experiment. Chemical agents were orally or intraperitoneally administered to the NOD mice aged 9 to 11 weeks three times per week, in total nine times; and based on the test results of urine glucose, positive or negative, the onset of diabetes mellitus was followed once per week. Urine glucose was detected, using Uropaper (BM Test Glucose 5000, manufactured by Yamanouchi Pharmaceuticals, Co. Ltd.). The onset was judged on week 22; the doses were the same as in Example 24.

[5] = Table 3, day 15 after adjuvant, every 3 days, single dose 1 mg/kg (NAC)2 and (NAC-OMe)2, 100 mg/kg NAC, 0.1 mg/kg lentinan

| SMILES | Frequency (%) of onset of diabetes mellitus, on age 18 weeks ([1]; intraperitoneal) | Frequency (%) of onset of diabetes mellitus, on age 22 weeks ([1]; intraperitoneal) | Frequency (%) of onset of diabetes mellitus ([2]; intraperitoneal) | NO, amount produced relative to that of control group (NO) | Ratio in % of joint swelling in experimental groups to joint swelling in control group [3, 5] | Ratio in % of joint swelling in experimental groups to joint swelling in control group ([3]; Table 4, intravenous) | IL-6, amount produced relative to that of control group (IL-6) | Frequency (%) of onset of diabetes mellitus ([4]; intraperitoneal, judged on week 22, doses as in Example 24, saline 67) | Frequency (%) of onset of diabetes mellitus ([4]; route not given, judged on week 22, saline 67) | Frequency (%) of onset of diabetes mellitus, on age 18 weeks ([1]; oral) | Frequency (%) of onset of diabetes mellitus, on age 22 weeks ([1]; oral) | Frequency (%) of onset of diabetes mellitus ([2]; oral) | Ratio in % of joint swelling in experimental groups to joint swelling in control group ([3]; Table 4, oral) | Frequency (%) of onset of diabetes mellitus ([4]; oral, judged on week 22, doses as in Example 24, saline 67) |
| --- | --- | --- | --- | --- | --- | --- | --- | --- | --- | --- | --- | --- | --- | --- |
| COC(=O)[C@H](CSSC[C@H](NC(C)=O)C(=O)OC)NC(C)=O [(NAC-OMe)2, N,N′-diacetylcystine dimethyl ester] | 70% | 80% | 70% | 12% | 50% | 42% | 320% | 11% |  |  |  |  |  |  |
| CC(=O)N[C@@H](CSSC[C@H](NC(C)=O)C(=O)O)C(=O)O [(NAC)2, N,N′-diacetylcystine] | 60% | 80% |  | 18% | 96% | 95% | 340% |  | 60% |  |  |  |  |  |
| CCOC(=O)CNC(=O)[C@H](CS)NC(=O)CC[C@H](N)C(=O)O [GSH-OEt, glutathione monoethyl ester] | 0% | 5% | 0% |  |  |  |  |  |  |  |  |  |  |  |
| CC(=O)N[C@@H](CS)C(=O)O [NAC, N-acetylcysteine, reference compound] | 10% | 20% |  | 172% | 132% |  | 42% |  |  | 30% | 40% | 40% | 142% | 60% |
